The assay relates to JNK1. The assay is described as follows: Epitope-tagged JNK1 protein kinase activity in transfected COS cells. The assay is classed as cell-based. The conditions noted are these: 10 nM EGF or 100 nM TPA. The procedure: JNK1 protein kinase activity was detected in the immune-complex. Immunecomplex kinase assays using either M2 immunoprecipitates or purified JNK1, JNK-46, and ERK1 or ERK2 were performed at 30° C. for 20 mins using 3 μg of substrate, 20 μM ATP and 5 μCi of [γ-^32P]ATP in 30 μl of kinase buffer (25 mM Hepes (pH 7.6), 20 mM MgCl2, 20 mM β-glycerophosphate, 20 mM p-nitrophenyl phosphate, 0.1 mM Na orthovanadate, 2 mM DTT). The reactions were terminated with Laemmli sample buffer and the products were resolved by SDS-PAGE (12% gel). JNK1 protein activity was also measured after SDS-PAGE by the in-gel kinase assay with the substrate GST-cJun(1-79) as described by Hibi, et al., supra, (1993). Solid-phase protein kinase assays were performed as described by Hibi, et al., supra, (1993). Clarified cell extracts were incubated with GST fusion proteins immobilized on GSH-agarose beads. After 3 hours at 4° C., the beads were washed extensively and bound JNK1 was detected by the addition of [γ-^32P]ATP. The reaction was terminated after 10 mins at 30° C. and the products were resolved by SDS-PAGE. The incorporation of [^32P]phosphate was visualized by autoradiography and quantitated with a phosphorimager and ImageQuant software (Molecular Dynamics Inc., Sunnyvale, Calif.). The methods used for phosphopeptide mapping (Boyle, et al., Cell 64:573-584, 1991) and phosphoamino acid analysis (Alvarez, et al., J. Biol. Chem 266:15227-15285, 1991) were described previously.
Epitope-tagged JNK1 was expressed in COS cells. Control experiments were performed using mock-transfected cells. After 48 hours, the cells were treated either without or with 100 nM TPA, 10 nM EGF, or 80 J/m^2 UV-C and incubated for 1 hr. The cells were lysed in RIPA buffer and the JNK1 proteins were isolated by immunoprecipitation with the M2 monoclonal antibody. JNK1 protein kinase activity was measured after SDS-PAGE using an in-gel kinase assay with the substrate GST-cJun(1-79) polymerized into the gel.
COS-1 cells were maintained in. Dulbecco's modified Eagle's medium supplemented with 5% […] (Gibco-BRL). Metabolic labeling with [^32P]phosphate was performed by incubation of cells in phosphate-free modified Eagle's medium (Flow Laboratories Inc.) supplemented with 0.1% fetal bovine serum and 1 mCi/ml [^32P]orthophosphate (Dupont-NEN). COS cells were treated with 10 nM EGF or 100 nM thorbol myristate acetate. The cells were then incubated for defined times at 37° C. prior to harvesting and measurement of JNK1 protein kinase activity. The data are presented as arbitrary units. […] In contrast, exposure to UV radiation caused a marked increase in JNK1 activity.

The source of these data is patent US6706509B2, “Oncoprotein protein kinase” (The Regents of the University of California, priority 1993, dated 2004).

Take “EGF: EGF, used at 10 nM to treat COS cells (NSDSECPLSHDGYCLHDGVCMYIEALDKYACNCVVGYIGERCQYRDLKWWELR; UniProt P01133 971-1023, looked up)”: the JNK1 activation entry is listed as “low level of JNK1 activation” and the “duration of JNK1 activation” value is on record as “approximately 2 hours”.
